# Measurements from patent US20140263071A1, “METHOD FOR COLLECTING METALS” (CHEMEC OY AB, priority 2011, published 2014).
# Read-outs that look alike come from different tables or passages of the source. Marks after values point to notes of the source that are not given here.
# Columns and labels:
# [1] = Separation of silver with complexation agent by HCl elution (Example 20); conditions: for Concentration after 1a: mixture of Ag^+, 1a 10 g, 48 h; for End concentration in 1a: after HCl elutions; for Metals in 0.01M HCl: elution of loaded 1a with 0.01 M HCl (60 ml); for Metals in 0.1M HCl: elution of loaded 1a with 0.1 M HCl (60 ml); for Metals in 1M HCl: elution of loaded 1a with 1 M HCl (60 ml)
# Procedure: A mixture of Cu(NO3)2×3H2O (20 ml, 0.1 M), AgNO3 (20 ml, 0.1 M), Fe(NO3)3 (20 ml, 0.1 M), water (40 ml) and 1a (10 g) were stirred for 48 h at room temperature. Solids were collected to sintered disc (porosity G-4), washed with water (60 ml) and eluted with 0.01 M (60 ml), 0.1 M (60 ml) and 1 M (60 ml) HCl solutions. Amounts of each metals in eluted HCl solutions were determined by AAS using standard procedures.
# [2] = Purification of water draining through the dump site, TS 1 (Example 16)
# Procedure: Drainage water sample was taken from dumping site containing polluted soil: ca. 200 mg/l of Ca^2+ and Mg^2+; 0.05-0.3 mg/l of Al^3+, Ba^2+, Mn^2+, Mo^6+, Ni^2+ and Zn^2+; ≦0.05 mg/l of As^3+ (or As^5+), Cd^2+ and Pb^2+; pH 3.53.
# Test Sample 1 (TS 1, 100 ml), which initial metal cation concentrations were determined by using ICP-AES method, was treated with 1a (1.0 g) with stirring for 24 h. After filtration trough 0.2 μm syringe filter metal concentrations in solution were determined and removal per cents were calculated. Since TS 1 contained only small amounts of As, Cd and Pb, sample was spiked with known amounts of these metal cations. The spiked sample (100 ml) was treated with 1a (1 g) as original TS 1 sample.
# [3] = Solubility of the compounds, molybdenum blue method, UV/Vis 880 nm (Example 6); assay type: physicochemical; conditions: saturated aqueous solution
# From the text: The low solubility is achieved by using long carbon chain(s) or aromatic ring(s) in the bisphosphonate structure I. Advantageously, compound I contains 7-16 carbon atoms either in chain, branched chain or cyclic structure or in combination of these structural units between A and X, and preferably in the chain starting from the P-C-P bridging carbon and the number of heteroatomic functional groups excluding the phosphorous functionalities are limited to two or three groups. The solubility decreases even more if compound I contains functional groups which are capable to form twitter ions with each other. Typical examples of twitter ions are acids (e.g., —CO2H or —PO3H2) and bases (amines) in the same molecule. Solubilities of selected bisphosphonate compounds I were determined with UV/Vis spectrophotometer at 880 nm using molybdenum blue method (Finnish Standard Association SFS 3026: Determination of phosphate in water. Finnish Standard Association SFS, Helsinki Finland, 1986).
# Solubilities of selected compounds were determined with UV/Vis Spectrophotometer at 880 nm using molybdenum blue method from saturated aqueous samples solutions (Finnish Standard Association SFS 3026: Determination of phosphate in water. Finnish Standard Association SFS, Helsinki Finland, 1986).
# [4] = Maximum expulsion percent of single metal cations from water solution (Example 8)
# Procedure: A water solution (110 ml) containing known amount of single cationic element or elements, typically 0.5-200 ppm, was prepared from Merch Titrisol® standard solution. After adjusting pH by using acid (e.g. HCl or HNO3) or base (e.g. NaOH) to desired initial value, sample A (10 ml) was taken followed by adding 100 mg of selected solid complexation agent. The mixture was stirred at room temperature for 24 h and sample B (10 ml) was taken. Samples A and B were filtrated separately trough 0.2 μm syringe filter and the concentration of the studied element or elements in both solution was determined by using atomic absorption spectrophotometer. The expulsion percent was determined from the concentration differences between the sample solutions A and B.
# The maximum expulsion percent and pH value in which the value was achieved was determined for each single cationic element using the general procedure mentioned above.
compound,measurement,setting,value
"NCCCCCCCCCCC(O)(P(=O)(O)O)P(=O)(O)O [Compound 1a, 11-Amino-1-hydroxyundecane-1,1-diyldiphosphonic acid]",Amounts of metals in 1a,[1]; Ag^+,1320 mg/L
same,Concentration after 1a,"[1]; Ag^+, initial 2050 mg/l, Cu^2+, Fe^3+",730 mg/L
same,End concentration in 1a,[1]; Ag^+,1300 mg/L
same,Metals in 0.01M HCl,[1]; Ag^+,10 mg/L
same,Metals in 0.1M HCl,[1]; Ag^+,0 mg/L
same,Metals in 1M HCl,[1]; Ag^+,10 mg/L
same,Amounts of metals in 1a,[1]; Cu^2+,210 mg/L
same,Concentration after 1a,"[1]; Cu^2+, initial 1310 mg/l, Cu^2+, Fe^3+",1100 mg/L
same,End concentration in 1a,[1]; Cu^2+,0 mg/L
same,Metals in 0.01M HCl,[1]; Cu^2+,0 mg/L
same,Metals in 0.1M HCl,[1]; Cu^2+,10 mg/L
same,Metals in 1M HCl,[1]; Cu^2+,200 mg/L
same,Amounts of metals in 1a,[1]; Fe^3+,80 mg/L
same,Concentration after 1a,"[1]; Fe^3+, initial 1040 mg/l, Cu^2+, Fe^3+",960 mg/L
same,End concentration in 1a,[1]; Fe^3+,0 mg/L
same,Metals in 0.01M HCl,[1]; Fe^3+,10 mg/L
same,Metals in 0.1M HCl,[1]; Fe^3+,10 mg/L
same,Metals in 1M HCl,[1]; Fe^3+,60 mg/L
same,Expulsion [%],"[2]; Spiked TS 1, Al^3+",67%
same,Expulsion [%],"[2]; Spiked TS 1, As^3/5+",0%
same,Expulsion [%],"[2]; Spiked TS 1, Ba^2+",26%
same,Expulsion [%],"[2]; Spiked TS 1, Ca^2+",48%
same,Expulsion [%],"[2]; Spiked TS 1, Cd^2+",96%
same,Expulsion [%],"[2]; Spiked TS 1, Mg^2+",78%
same,Expulsion [%],"[2]; Spiked TS 1, Mn^2+",≥ 51^2) %
same,Expulsion [%],"[2]; Spiked TS 1, Ni^2+",33%
same,Expulsion [%],"[2]; Spiked TS 1, Pb^2+",94%
same,Expulsion [%],"[2]; Spiked TS 1, Zn^2+",90%
same,Expulsion [%],"[2]; TS 1, Al^3+",76%
same,Expulsion [%],"[2]; TS 1, Ba^2+",32%
same,Expulsion [%],"[2]; TS 1, Ca^2+",51%
same,Expulsion [%],"[2]; TS 1, Mg^2+",81%
same,Expulsion [%],"[2]; TS 1, Mn^2+",≥ 57^2) %
same,Expulsion [%],"[2]; TS 1, Ni^2+",50%
same,Expulsion [%],"[2]; TS 1, Zn^2+",89%
same,solubility,[3],59 mg/L
same,solubility,[3]; read-out: mg/l P (solubility calculated as elemental phosphorus),10 mg/L
same,Expulsion-% (maximum),"[4]; Ag^+, pH 2.0, initial 1 ppm",100%
same,Expulsion-% (maximum),"[4]; Al^3+, pH 2.1, initial 10 ppm",96.9%
same,Expulsion-% (maximum),"[4]; Au^3+, pH 0.5, initial 1 ppm",63.3%
same,Expulsion-% (maximum),"[4]; Ba^2+, pH 3.0, initial 10 ppm",90.2%
same,Expulsion-% (maximum),"[4]; Bi^3+, pH 3.0, initial 10 ppm",100%
same,Expulsion-% (maximum),"[4]; Ca^2+, pH 2.6, initial 2 ppm",69.9%
same,Expulsion-% (maximum),"[4]; Cd^2+, pH 3.6, initial 0.5 ppm",97.3%
same,Expulsion-% (maximum),"[4]; Co^2+, pH 3.4, initial 1 ppm",85.0%
same,Expulsion-% (maximum),"[4]; Cr^3+, pH 3.1, initial 2 ppm",97.2%
same,Expulsion-% (maximum),"[4]; Cr^6+, pH 6.6, initial 2 ppm",0%
same,Expulsion-% (maximum),"[4]; Cu^2+, pH 3.5, initial 2 ppm",95.7%
same,Expulsion-% (maximum),"[4]; Cu^+, pH 2.4, initial 2 ppm",85.3%
same,Expulsion-% (maximum),"[4]; Eu^3+, pH 4.0, initial 5 ppm",85.3%
same,Expulsion-% (maximum),"[4]; Fe^2+, pH 6.5, initial 1 ppm",93.0%
same,Expulsion-% (maximum),"[4]; Fe^3+, pH 3.1, initial 1 ppm",98.9%
same,Expulsion-% (maximum),"[4]; Ga^3+, pH 0.5, initial 50 ppm",1.0%
same,Expulsion-% (maximum),"[4]; Gd^3+, pH 1.5, initial 100 ppm",0%
same,Expulsion-% (maximum),"[4]; Hg^2+, pH 5.0, initial 0.1 ppm",93.0%
same,Expulsion-% (maximum),"[4]; Hg^+, pH 3.0, initial 1 ppm",89.4%
same,Expulsion-% (maximum),"[4]; In^3+, pH 2.1, initial 20 ppm",73.4%
same,Expulsion-% (maximum),"[4]; Ir^3+, pH 0.6, initial 100 ppm",66.1%
same,Expulsion-% (maximum),"[4]; K^+, pH 4.2, initial 1 ppm",0%
same,Expulsion-% (maximum),"[4]; La^3+, pH 3.0, initial 100 ppm",54.1%
same,Expulsion-% (maximum),"[4]; Li^+, pH 3.9, initial 0.5 ppm",4.8%
same,Expulsion-% (maximum),"[4]; Mg^2+, pH 2.9, initial 0.5 ppm",64.3%
same,Expulsion-% (maximum),"[4]; Mn^2+, pH 3.4, initial 1 ppm",93.8%
same,Expulsion-% (maximum),"[4]; Mo^6+, pH 8.9, initial 10 ppm",80.8%
same,Expulsion-% (maximum),"[4]; Na^+, pH 3.9, initial 0.5 ppm",0%
same,Expulsion-% (maximum),"[4]; Nb^5+, pH 8.5, initial 100 ppm",100%
same,Expulsion-% (maximum),"[4]; Nd^3+, pH 4.1, initial 100 ppm",98.1%
same,Expulsion-% (maximum),"[4]; Ni^2+, pH 3.3, initial 1 ppm",78.6%
same,Expulsion-% (maximum),"[4]; Os^4+, pH 0.5, initial 100 ppm",85.8%
same,Expulsion-% (maximum),"[4]; Pb^2+, pH 3.2, initial 5 ppm",99.6%
same,Expulsion-% (maximum),"[4]; Pd^2+, pH 8.0, initial 5 ppm",77.8%
same,Expulsion-% (maximum),"[4]; Pt^2+, pH 0.5, initial 25 ppm",70.0%
same,Expulsion-% (maximum),"[4]; Rh^3+, pH 4.0, initial 10 ppm",77.7%
same,Expulsion-% (maximum),"[4]; Ru^3+, pH 2.0, initial 10 ppm",48.5%
same,Expulsion-% (maximum),"[4]; Sb^3+, pH 3.0, initial 10 ppm",100%
same,Expulsion-% (maximum),"[4]; Sc^3+, pH 2.0, initial 5 ppm",100%
same,Expulsion-% (maximum),"[4]; Si^4+, pH 1.0, initial 50 ppm",1.3%
same,Expulsion-% (maximum),"[4]; Sn^2+, pH 7.0, initial 50 ppm",98.1%
same,Expulsion-% (maximum),"[4]; Sn^4+, pH 10.3, initial 200 ppm",100%
same,Expulsion-% (maximum),"[4]; Sr^2+, pH 5.0, initial 2 ppm",93.2%
same,Expulsion-% (maximum),"[4]; Ti^4+, pH 9.8, initial 50 ppm",48.8%
same,Expulsion-% (maximum),"[4]; U^6+, pH 3.4, initial 2.5 ppm",87.6%
same,Expulsion-% (maximum),"[4]; V^4+, pH 0.5, initial 100 ppm",69.3%
same,Expulsion-% (maximum),"[4]; W^6+, pH 1.6, initial 50 ppm",12.0%
same,Expulsion-% (maximum),"[4]; Y^3+, pH 2.1, initial 25 ppm",89.1%
same,Expulsion-% (maximum),"[4]; Zn^2+, pH 3.7, initial 0.5 ppm",94.7%
same,Expulsion-% (maximum),"[4]; Zr^4+, pH 0.5, initial 100 ppm",81.5%
